This is an account of results in patent US20240261250A1 (priority 2020, published 2024).

Series [1] deals with SH-SY5Y cells. Type of series: cell-based.
The subject of series [2] is SH-SY5Y cells.
The test system of series [3] is SH-SY5Y cells. The series is classed as cell-based. The source holds these as a separate data set.
For series [4], the system named is SH-SY5Y cells. The series is classed as cell-based. The source holds these as a separate data set.

Regarding `O[C@H]1[C@H](O)[C@@H](O)[C@@H]2O[C@@H]2[C@@H]1O` (racemic) [CBE, Conduritol B Epoxide], in the series with SH-SY5Y cells [1], the “concentration of GlcCer of various side chains in cells” value is on record as “much higher”. Further, the cell viability entry in the series with SH-SY5Y cells [2] is recorded as “significantly inhibited”. Further, in the series on SH-SY5Y cells [3], the “immunofluorescence intensity of Lyso-tracker” value is listed as “increased significantly” and the “number of Lyso-tracker labeled positive cells” value was “significantly increased”.
Consider `COc1ncc(-c2ccc3nc(N)n(-c4ccc(N5CCOCC5)cc4)c3c2)cc1S(=O)(=O)Nc1ccccc1F` [A1, 5-(2-amino-1-(4-(4-morpholinyl)phenyl)-1H-benzimidazol-6-yl)-N-(2-fluorophenyl)-2-methoxy-3-pyridinesulfonamide], for which the “Lyso-tracker labeled positive cells” value in the series with SH-SY5Y cells [3] is “fewer Lyso-tracker labeled positive cells”.
For the compound `CO/C1=C\C(C)=C\[C@@H](C)[C@@H](O)[C@@H](C)C/C(C)=C/C=C/[C@H](OC)[C@@H]([C@@H](C)[C@@H](O)[C@H](C)[C@@]2(O)C[C@@H](O)[C@H](C)[C@@H](C(C)C)O2)OC1=O` [Baf-A1, Bafilomycin A1], in the series on SH-SY5Y cells [2], the cell viability result is given as “not significantly different” and the “effect on the protection by PAO (cell viability)” value is “decreased the protection effect of PAO”.
As for `CCN(CC)CCO[C@H]1CC[C@@]2(C)C(=CC[C@@H]3[C@@H]2CC[C@]2(C)C(=O)CC[C@@H]32)C1` [U18666A], the “Filipin staining fluorescence intensity” value in the series on SH-SY5Y cells [4] is given as “enhanced”.
